These results are taken from patent publication US20230322724A1, “HETEROCYCLIC COMPOUNDS AS CBP/EP300 BROMODOMAIN INHIBITORS” (AURIGENE ONCOLOGY LIMITED, priority 2020, published 2023).

Where only a bound is given, the exact number is not on record here.

Experiment [1] addresses T1, recombinant CREBBP bromodomain (Homo sapiens, UniProt Q92793).
T1 construct: recombinant CREBBP bromodomain obtained from BPS Bioscience, USA; purchased BPS Bioscience, USA
Briefly: CBP TR-FRET displacement assay. The format is binding. To be noted: for IC50: dose-response, read-out: IC50 (group A, B, C); for inhibition at 10 µM: compound at 10 μM. As to the method:
The potency of compounds to inhibit CREBBP enzyme was tested in a TR-FRET displacement assay using recombinant CREBBP bromodomain obtained from BPS Bioscience, USA. The assay buffer was 50 mM HEPES (pH 7.5), 50 mM NaCl, 0.008% Brij 35, 0.01% BSA, 1 mM TCEP. 50 nM of CREBBP & 500 nM of Biotinylated ligand was incubated at room temperature for 30 minutes, the reaction was initiated by adding pre-incubated enzyme ligand mixture to the test compounds. After 60 min incubation, the reaction was stopped by the addition of stop mix containing 1 nM of LANCE Europium-anti-6xHis antibody (Perkin Elmer, USA) and 40 nM of Sure Light Allophycocyanin-Streptavidin (Perkin Elmer, USA). Fluorescence emission of the samples at 665 and 615 nm were measured at an excitation of 340 nm and their ratio was plotted against the compound concentrations to generate dose-response curve. The percent inhibition of the test compounds is calculated using the ratio of enzyme activity controls.
elected compounds of the present invention were screened in the above-mentioned assay procedures and IC50 values were determined by fitting the dose-response data to sigmoidal curve fitting equation using Graph pad prism software V7.

The target of experiment [2] is T2, recombinant BRD4 FL bromodomain (Homo sapiens, UniProt O60885).
T2 construct: fused on or other part: 6xHis tag, inferred from detection with Mab ANTI 6HIS-XL665
Briefly: BRD4 FL TR-FRET displacement assay. As to conditions: BRD4 FL; for IC50: dose-response, read-out: IC50 (group A, B, C); for inhibition at 10 µM: read-out: % Inhibition (10 μM). In kind it is binding. The method, then:
The potency of compounds to inhibit BRD4 FL enzyme was tested in a TR-FRET displacement assay using recombinant BRD4 FL bromodomain obtained In-house. The assay buffer was 50 mM HEPES (pH 7.5), 50 mM NaCl, 500 μM CHAPS. 10 nM of BRD4 FL & 300 nM of Biotinylated Acetyl histone H4 (Lys 5, 8, 12, 16) (Millipore, USA) was incubated at room temperature for 30 minutes, the reaction was initiated by adding the pre-incubated enzyme ligand mixture to the test compounds. After 30 min incubation, the reaction was stopped by the addition of stop mix containing 1 nM of Europium Streptavidin cryptate (Cisbio, USA) and 5 nM of Mab ANTI 6HIS-XL665 (Cisbio, USA) dilutes in assay buffer containing 2.4M Potassium Fluoride. Fluorescence emission of the samples at 665 and 615 nm were measured at an excitation of 340 nm and their ratio was plotted against the compound concentrations to generate dose-response curve. The percent inhibition of the test compounds is calculated using the ratio of enzyme activity controls.
Selected compounds of the present invention were screened in the above-mentioned assay procedures and IC50 values were determined by fitting the dose-response data to sigmoidal curve fitting equation using Graph pad prism software V7.

T1 sequence (Q92793 1085-1192 limits assumed): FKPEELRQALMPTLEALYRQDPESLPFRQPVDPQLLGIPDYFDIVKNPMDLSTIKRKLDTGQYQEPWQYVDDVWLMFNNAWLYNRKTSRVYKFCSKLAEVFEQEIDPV

Turning to `CNC(=O)C1CCN(c2cc3c(cc2F)N(c2cc(OC)cc4c2cc(C)c(=O)n4C)CCN3C)CC1` [Example 33], the IC50 in experiment [1] was in the range of 51 to 100 nM; in experiment [2] it was 2010 to 5000 nM. Turning to `Cc1cc2c(N3CCN(C)c4cc(-c5cnn(C)c5)ncc43)cc(N3CCS(=O)(=O)CC3)cc2n(C)c1=O` [Example 148], in experiment [1], the IC50 is greater than 10 nM. Also, the inhibition at 10 µM in experiment [2] (compound at 10 μM) was 55%.

On to `Cc1cc2c(N3CCCN(C)c4cc(-c5cnn(C)c5)c(C#N)cc43)cccc2[nH]c1=O` [Example 5], for which the values for the inhibition at 10 µM in experiment [1] and in experiment [2] (compound at 10 μM) were 38% and 48%, respectively. As for `CN1CCN(c2cccc3[nH]c(=O)ccc23)c2cc(C#N)c(-c3cnn(C)c3)cc21` [Example 52], the inhibition at 10 µM in experiment [1] came out at 83%; in experiment [2] (compound at 10 μM), 35%. `Cc1cc2c(N3CCN(C)c4cc(-c5cnn(C)c5)ncc43)cc(N3C[C@@H](C)O[C@@H](C)C3)cc2n(C)c1=O` [Example 133]: the IC50 in experiment [1] lay in the range of 51 to 100 nM; in experiment [2] it was 2010 to 5000 nM. Consider `Cc1cc2c(N3CCN(C)c4cc(-c5cnn(C)c5)ncc43)nc(N3CC4(COC4)C3)cc2n(C)c1=O` [Example 220], for which the IC50 is greater than 10 nM in experiment [1] and 2010 to 5000 nM in experiment [2]. Turning to `Cc1cc2c(N3CCN(C)c4cc(-c5cnn(C)c5)ncc43)cc(OCC(F)F)cc2n(C)c1=O` [Example 130], the half-inhibitory concentration (IC50) in experiment [1] was in the range of 51 to 100 nM. Moreover, in experiment [2] (compound at 10 μM), the inhibition at 10 µM was 48%. The corresponding values for `CNC(=O)C1CCN(c2cc3c(cc(C)c(=O)n3C)c(N3CCN(C)c4cc(-c5cnn(C)c5)ncc43)n2)C1` (stereo not drawn) [Example 205] are 51 to 100 nM and 43%. With `COc1cc(N2CCCc3ccc(-c4cn[nH]c4)cc32)c2cc(C)c(=O)n(C)c2c1` [Example 198, 7′-Methoxy-1′,3′-dimethyl-7-(1H-pyrazol-4-yl)-3,4-dihydro-2H-[1,5′-biquinolin]-2′(1′H)-one], the IC50 in experiment [2] fell in the range of 2010 to 5000 nM.

As for `CNC(=O)c1ccc(-c2cc3c(cc2C(F)F)N(c2nc(N4CCOCC4)cc4c2cc(C)c(=O)n4C)CCC3)cn1` [Example 203], the IC50 in experiment [2] lay in the range of 2010 to 5000 nM. Take `Cc1cc2c(N3CCN(C)c4cc(C5CC5)ncc43)cc(N3CCOCC3)cc2n(C)c1=O` [Example 138]: the IC50 in experiment [2] fell in the range of 2010 to 5000 nM.

As to `COc1cc(N2CCN(C)c3ccc([S+](C)[O-])cc32)c2cc(C)c(=O)n(C)c2c1` (single isomer, unassigned) [Example 249], the IC50 in experiment [2] is 2010 to 5000 nM.

As to `COc1cc(N2CCCc3ccc(S(=O)(=O)NC(C)=O)cc32)c2cc(C)c(=O)n(C)c2c1` [Example 199, N-((T-methoxy-1′,3′-dimethyl-2′-oxo-1′,2′,3,4-tetrahydro-2H-[1,5′-biquinolin]-7 yl)sulfonyl)acetamide], the “% Inhibition (10 μM)” value in experiment [2] (compound at 10 μM) was 45%.

In the case of `COc1cc(N2CCN(C)c3cc(N4CCCC(NC(C)=O)C4)ncc32)c2cc(C)c(=O)n(C)c2c1` (stereo not drawn) [Example 122], the inhibition at 10 µM in experiment [2] (compound at 10 μM) came to 33%.

For the compound `COc1cc(N2CCCc3ccc(NC(C)=O)cc32)c2cc(C)c(=O)n(C)c2c1` [Example 196, N-(7′-methoxy-1′,3′-dimethyl-2′-oxo-1′,2′,3,4-tetrahydro-2H-[1,5′-biquinolin]-7-yl)acetamide], in experiment [2], the concentration for half-maximal inhibition (IC50) was in the range of 2010 to 5000 nM. The same measure, in the same setting: the same measure for `COc1cc(N2CCN(C)c3cc(N4CCN(C(C)=O)CC4)ncc32)c2cc(C)c(=O)n(C)c2c1` [Example 119]: 2010 to 5000 nM.

Take `COc1cc(N2CCN(C)c3cc(N4CCCC(C#N)C4)ncc32)c2cc(C)c(=O)n(C)c2c1` (stereo not drawn) [Example 120]: the inhibition at 10 µM in experiment [2] (compound at 10 μM) came to 34%.

Consider `Cc1cc2c(N3CCN(C)c4cc(-c5cnn(C)c5)ncc43)cc(N3CCCC(C#N)C3)cc2n(C)c1=O` (stereo not drawn) [Example 149], for which the IC50 in experiment [2] lay within 2010 to 5000 nM. Same read-out and setting: the same measure for `Cc1cc2c(N3CCN(C)c4ccc(S(N)(=O)=O)cc43)cc(N3CC[C@@H](O)C3)cc2n(C)c1=O` [Example 92, (R)-4-(7-(3-Hydroxypyrrolidin-1-yl)-1,3-dimethyl-2-oxo-1,2-dihydroquinolin-5-yl)-1-methyl-1,2,3,4-tetrahydroquinoxaline-6-sulfonamide]: 2010 to 5000 nM.
